# Reference: patent publication US11584733B2, “Selective histone deacetylase inhibitors for the treatment of human disease” (Shuttle Pharmaceuticals, Inc., priority 2017, dated 2023)
# pEC50: −log10 of the molar value.
# System: MCF-7 breast cancer cells
# Assay: Cell Proliferation and Cytotoxicity Assay (CCK-8)
# Format: cell-based
# Details: FIG. 15
# From the text: Cell Counting Kit-8 (CCK-8) (Dojindo) was used to determine the cytotoxicity of cells. CCK-8 assay kit uses a water-soluble WST-8 tetrazolium salt. This tetrazolium salt produces a water-soluble formazan dye upon reduction in the presence of an electron mediator (dehydrogenase). When WST-8 is reduced by dehydrogenases in living cells an orange colored product (formazan) is produced that can be detected in a 96-well plate format. The amount of the formazan dye generated by dehydrogenases is directly proportional to the number of living cells.
# For this assay the following materials were required:
# 1. Plate reader (450 nm filter);
# 5. Tissue Culture Media; and
# 6. Actively growing cells (75-80% confluency).
# The following dilutions with cell media were made prior to performance of an assay: Test compound solutions were made in a range from nano-molar to micro-molar with a final DMSO concentration not exceeding 0.1% and a total volume (e.g., 300 ul) necessary to perform duplicates of 100 μl doses.
# A Cell Proliferation and Cytotoxicity Assay was performed as follows:
# 1. Dispense 100 μl of cell suspension (5000 cells/well) in a 96-well plate equal to the number of treatments plus controls done in duplicate;
# 2. Allow seeded cells to plate for 24 hours in a humidified incubator (at 37° C., 5% CO2);
# 3. […]
# 7. Measure the absorbance at 450 nm using a micro-plate reader; and […]
smiles,measurement,setting,value
"O=C(CCCCCCC(=O)NC1CCC(=O)NC1=O)NO (centres unmarked) [SP-2-59, N^1-(2,6-dioxopiperidin-3-yl)-N^8-hydroxyoctanediamide]",pEC50,"Homo sapiens, MCF7, 48 hours incubation, read-out: EC50 against MCF-7 breast cancer cells",5.30
same,MCF-7 cells killed,at about 10 μM,78%
